Measured values: US20150299188A1, “HETEROCYCLIC COMPOUND” (priority 2012, published 2015)

System: FLAP (5-lipoxygenase activating protein)
Assay: In vitro binding test: displacement of [3H]-7-chloro-3-(5-((3-fluoropyridin-2-yl)methoxy)-2-methylphenyl)-3,4-dihydroquinazolin-2(1H)-one from Sf9 microsome fractions
Parameters: species or system human and mouse
Settings: Sf9 microsome fractions expressing FLAP; 100% = radioligand binding with 10 μM sodium 3-(3-(tert-butylsulfanyl)-1-(4-chlorobenzyl)-5-isopropyl-1H-indol-2-yl)-2,2-dimethylpropanoate, 0% = DMSO; test compound concentration not given
How it was run: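 Sf9 microsomes expressing human or mouse FLAP (2 μg/mL) preincubated with compound 10 min at room temperature, then 120 nM tritiated quinazolinone ligand added for 60 min; buffer 100 mM Tris-HCl pH 7.5 with NaCl, EDTA, DTT, glycerol, Tween20. Bound ligand filtered and counted by scintillation; 10 μM indole propanoate defines 100% inhibition, DMSO 0%.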

Compound | inhibitory rate (%)
Cc1noc(-c2cc3c(c(C4CC4)n2)CN(c2cc4c(cc2Cl)CCC(c2ncccc2F)O4)C(=O)N3)n1 (centres unmarked) [Example 121, 3-(6-chloro-2-(3-fluoropyridin-2-yl)-3,4-dihydro-2H-chromen-7-yl)-5-cyclopropyl-7-(3-methyl-1,2,4-oxadiazol-5-yl)-3,4-dihydropyrido[4,3-d]pyrimidin-2(1H)-one] | 111
Cc1ccc(OCc2c(F)cccc2F)cc1N1Cc2[nH]ncc2NC1=O [Example 309, 6-(5-((2,6-difluorobenzyl)oxy)-2-methylphenyl)-1,4,6,7-tetrahydro-5H-pyrazolo[4,3-d]pyrimidin-5-one] | 51
O=C1Nc2c(C3CC3)ncc(Cl)c2CN1c1cc2c(cc1Cl)CCC(c1ncccc1F)O2 (centres unmarked) [Example 143, 5-chloro-3-(6-chloro-2-(3-fluoropyridin-2-yl)-3,4-dihydro-2H-chromen-7-yl)-8-cyclopropyl-3,4-dihydropyrido[3,4-d]pyrimidin-2(1H)-one] | 89
Cc1cc2c(c(C3CC3)n1)CN(c1cc3c(cc1C)CCC(c1ncccc1F)O3)C(=O)N2 (centres unmarked) [Example 83, 5-cyclopropyl-3-(2-(3-fluoropyridin-2-yl)-6-methyl-3,4-dihydro-2H-chromen-7-yl)-7-methyl-3,4-dihydropyrido[4,3-d]pyrimidin-2(1H)-one] | 96
Cc1cc2c(cc1N1Cc3c(cc(-n4cccn4)nc3C3CC3)NC1=O)OC(c1ncccc1F)CC2 (centres unmarked) [Example 132, 5-cyclopropyl-3-(2-(3-fluoropyridin-2-yl)-6-methyl-3,4-dihydro-2H-chromen-7-yl)-7-(1H-pyrazol-1-yl)-3,4-dihydropyrido[4,3-d]pyrimidin-2(1H)-one] | 104
Cc1cc2c(cc1N1Cc3c(Cl)cncc3NC1=O)OC(c1ncccc1F)CC2 (centres unmarked) [Example 22, 5-chloro-3-(2-(3-fluoropyridin-2-yl)-6-methyl-3,4-dihydro-2H-chromen-7-yl)-3,4-dihydropyrido[3,4-d]pyrimidin-2(1H)-one] | 109
COCCOc1ccc2c(=O)n(-c3cc(OCc4ncccc4F)ccc3C)c(=O)[nH]c2c1 [Example 356, 3-(5-((3-fluoropyridin-2-yl)methoxy)-2-methylphenyl)-7-(2-methoxyethoxy)quinazoline-2,4(1H,3H)-dione] | 102
COCCOc1cccc2[nH]c(=O)n(-c3cc(OCc4ncccc4F)ccc3C)c(=O)c12 [Example 366, 3-(5-((3-fluoropyridin-2-yl)methoxy)-2-methylphenyl)-5-(2-methoxyethoxy)quinazoline-2,4(1H,3H)-dione] | 95
Cc1ccc(OCc2ncccc2F)cc1N1Cc2nn(C)cc2NC1=O [Example 250, 6-(5-((3-fluoropyridin-2-yl)methoxy)-2-methylphenyl)-2-methyl-2,4,6,7-tetrahydro-5H-pyrazolo[4,3-d]pyrimidin-5-one] | 70
CNC(=O)c1cc2c(c(C3CC3)n1)CN(c1cc3c(cc1Cl)CCC(c1ncccc1F)O3)C(=O)N2 (centres unmarked) [Example 99, 3-(6-chloro-2-(3-fluoropyridin-2-yl)-3,4-dihydro-2H-chromen-7-yl)-5-cyclopropyl-N-methyl-2-oxo-1,2,3,4-tetrahydropyrido[4,3-d]pyrimidine-7-carboxamide] | 94
Cn1cc(-c2ncc(F)c3c2NC(=O)N(c2cc4c(cc2Cl)CCC(c2ncccc2F)O4)C3)cn1 (centres unmarked) [Example 169, 3-(6-chloro-2-(3-fluoropyridin-2-yl)-3,4-dihydro-2H-chromen-7-yl)-5-fluoro-8-(1-methyl-1H-pyrazol-4-yl)-3,4-dihydropyrido[3,4-d]pyrimidin-2(1H)-one] | 92
Cc1ccc(OCc2ncccc2F)cc1-n1c(=O)[nH]c2cc(NC(=O)C3CC3)ccc2c1=O [Example 350, N-(3-(5-((3-fluoropyridin-2-yl)methoxy)-2-methylphenyl)-2,4-dioxo-1,2,3,4-tetrahydroquinazolin-7-yl)cyclopropanecarboxamide] | 101
Cc1cc2c(cc1N1Cc3c(Cl)cnc(-c4c(C)nn(C)c4C)c3NC1=O)OC(c1ncccc1F)CC2 (single isomer, unassigned; (-)) [Example 15, (−)-5-chloro-3-(2-(3-fluoropyridin-2-yl)-6-methyl-3,4-dihydro-2H-chromen-7-yl)-8-(1,3,5-trimethyl-1H-pyrazol-4-yl)-3,4-dihydropyrido[3,4-d]pyrimidin-2(1H)-one] | 102
O=C1Nc2ccccc2CN1c1cc(OCc2ncccc2F)ccc1CNC1CC1 [Example 312, 3-(2-((cyclopropylamino)methyl)-5-((3-fluoropyridin-2-yl)methoxy)phenyl)-3,4-dihydroquinazolin-2(1H)-one] | 86
COCCN1C(=O)N(c2cc3c(cc2Cl)CCC(c2ncccc2F)O3)Cc2c1ccnc2Cl (centres unmarked) [Example 55, 5-chloro-3-(6-chloro-2-(3-fluoropyridin-2-yl)-3,4-dihydro-2H-chromen-7-yl)-1-(2-methoxyethyl)-3,4-dihydropyrido[4,3-d]pyrimidin-2(1H)-one] | 106
CCc1ccc(OCc2c(F)cccc2F)cc1N1Cc2ccc(C(C)(C)O)cc2NC1=O [Example 178, 3-(5-((2,6-difluorobenzyl)oxy)-2-ethylphenyl)-7-(2-hydroxypropan-2-yl)-3,4-dihydroquinazolin-2(1H)-one] | 109
O=C(NC1CC1)c1cc2c(c(C3CC3)n1)CN(c1cc3c(cc1Cl)CCC(c1ncccc1F)O3)C(=O)N2 (centres unmarked) [Example 76, 3-(6-chloro-2-(3-fluoropyridin-2-yl)-3,4-dihydro-2H-chromen-7-yl)-N,5-dicyclopropyl-2-oxo-1,2,3,4-tetrahydropyrido[4,3-d]pyrimidine-7-carboxamide] | 105
N#Cc1ccc(OCc2ncccc2F)cc1N1Cc2c(Cl)cccc2NC1=O [Example 278, 2-(5-chloro-2-oxo-1,4-dihydroquinazolin-3(2H)-yl)-4-((3-fluoropyridin-2-yl)methoxy)benzonitrile] | 96
COCCOc1ccc2c(=O)n(-c3cc(OCc4ncccc4F)ccc3C)c(=O)n(CCOC)c2c1 [Example 352, 3-(5-((3-fluoropyridin-2-yl)methoxy)-2-methylphenyl)-7-(2-methoxyethoxy)-1-(2-methoxyethyl)quinazoline-2,4(1H,3H)-dione] | 107
Cc1ccc(OCc2ncccc2F)cc1N1Cc2ncccc2NC1=O [Example 272, 3-(5-((3-fluoropyridin-2-yl)methoxy)-2-methylphenyl)-3,4-dihydropyrido[3,2-d]pyrimidin-2(1H)-one] | 95
COC(=O)c1cc2c(c(C3CC3)n1)CN(c1cc3c(cc1Cl)CCC(c1ncccc1F)O3)C(=O)N2 (centres unmarked) [Example 70, methyl 3-(6-chloro-2-(3-fluoropyridin-2-yl)-3,4-dihydro-2H-chromen-7-yl)-5-cyclopropyl-2-oxo-1,2,3,4-tetrahydropyrido[4,3-d]pyrimidine-7-carboxylate] | 101
O=C1Nc2c(N3CCC(O)CC3)ncc(Cl)c2CN1c1cc2c(cc1Cl)CCC(c1ncccc1F)O2 (centres unmarked) [Example 109, 5-chloro-3-(6-chloro-2-(3-fluoropyridin-2-yl)-3,4-dihydro-2H-chromen-7-yl)-8-(4-hydroxypiperidin-1-yl)-3,4-dihydropyrido[3,4-d]pyrimidin-2(1H)-one] | 106
COc1nccc2c1CN(c1cc(OCc3ncccc3F)ccc1C)C(=O)N2 [Example 307, 3-(5-((3-fluoropyridin-2-yl)methoxy)-2-methylphenyl)-5-methoxy-3,4-dihydropyrido[4,3-d]pyrimidin-2(1H)-one] | 100
Cc1cc2c(cc1N1Cc3c(Cl)cnc(-c4ccnn4C)c3NC1=O)OC(c1ncccc1F)CC2 (centres unmarked) [Example 160, 5-chloro-3-(2-(3-fluoropyridin-2-yl)-6-methyl-3,4-dihydro-2H-chromen-7-yl)-8-(1-methyl-1H-pyrazol-5-yl)-3,4-dihydropyrido[3,4-d]pyrimidin-2(1H)-one] | 93
Cc1ncc(Cl)c2c1NC(=O)N(c1cc3c(cc1Cl)CCC(c1ncccc1F)O3)C2 (centres unmarked) [Example 7, 5-chloro-3-(6-chloro-2-(3-fluoropyridin-2-yl)-3,4-dihydro-2H-chromen-7-yl)-8-methyl-3,4-dihydropyrido[3,4-d]pyrimidin-2(1H)-one] | 98
O=C1Nc2ccnc(N3CCOCC3)c2CN1c1cc2c(cc1Cl)CCC(c1ncccc1F)O2 (centres unmarked) [Example 58, 3-(6-chloro-2-(3-fluoropyridin-2-yl)-3,4-dihydro-2H-chromen-7-yl)-5-(morpholin-4-yl)-3,4-dihydropyrido[4,3-d]pyrimidin-2(1H)-one] | 117
COC1CN(C(=O)c2cc3c(c(C4CC4)n2)CN(c2cc4c(cc2Cl)CCC(c2ncccc2F)O4)C(=O)N3)C1 (centres unmarked) [Example 146, 3-(6-chloro-2-(3-fluoropyridin-2-yl)-3,4-dihydro-2H-chromen-7-yl)-5-cyclopropyl-7-((3-methoxyazetidin-1-yl)carbonyl)-3,4-dihydropyrido[4,3-d]pyrimidin-2(1H)-one] | 97
Cc1ccc(OCc2ncccc2F)cc1N1Cc2c(Cl)cccc2N(C)C1=O [Example 269, 5-chloro-3-(5-((3-fluoropyridin-2-yl)methoxy)-2-methylphenyl)-1-methyl-3,4-dihydroquinazolin-2(1H)-one] | 111
Cn1cc(-c2nccc3c2CN(c2cc4c(cc2Cl)CCC(c2ncccc2F)O4)C(=O)N3)cn1 (centres unmarked) [Example 62, 3-(6-chloro-2-(3-fluoropyridin-2-yl)-3,4-dihydro-2H-chromen-7-yl)-5-(1-methyl-1H-pyrazol-4-yl)-3,4-dihydropyrido[4,3-d]pyrimidin-2(1H)-one] | 100
